Measured values taken from paper PMC11233931, “Remodeling tumor‐associated macrophage for anti‐cancer effects by rational design of irreversible inhibition of mitogen‐activated protein kinase‐activated protein kinase 2” (MedComm, 2024).

Key:
[1] = system: TNF-α, IL-6 and IL-1β mRNA in THP-1 cell-line-derived macrophage; assay: RT-PCR of cytokine mRNA in LPS-stimulated THP-1 derived macrophages; type: cell-based, human; settings: THP-1 derived macrophage; 3 h pre-treatment, LPS 100 ng/mL 3 h
Excerpt: MK2 is recognized for inducing the production of pathological cytokines that fuel inflammation, including IL‐6, TNF‐α, and IL‐1β. These cytokines are the classic downstream target gene of MK2 and are identified as significant contributors to the risk of inflammation‐driven cancer,[34], [35], [36] such as colorectal cancer and hepatocellular carcinoma. Therefore, we assessed the transcriptional levels of these typical downstream cytokines in human monocytic THP‐1 cell‐line‐derived macrophage and the mouse RAW264.7 macrophage cell line under the influence of compound 11. […] Taken together, our findings corroborate that compound 11 effectively impedes the transcription and production of these key MK2 downstream pro‐inflammatory cytokines.
FIGURE 4 Targeting cellular MK2 signaling with irreversible inhibition by compound 11. […] (C) The inhibitory effects of compound 11 on TNF‐α and IL‐6 production in LPS‐stimulated RAW264.7 macrophages for 24 h, measured by ELISA. […]
Total RNA was extracted from cultured cells using the EZ‐press RNA Purification Kit (EZBioscience). Complementary DNA was synthesized using the ABScript III RT Master Mix for qPCR with gDNA remover (ABclonal Technology) and was quantified with primers listed in Table S5. The relative mRNA expression levels were quantified through qPCR using the SYBR green gene expression assay (ABclonal Technology).

[2] = Mouse pharmacokinetics study; type: in vivo; settings: male, ICR, plasma, mice, ip. 10 mg/kg, mean ± SD
Experimental: Compound 11 was dissolved in DMSO/Tween 80/PEG400/NaCl (5/5/45/45, v/v/v/v) to a concentration of 5 mg/mL and given to ICR mice (male, 18−22 g, n = 3) by intraperitoneal injection. Blood samples were obtained at intervals of 0.25, 0.5, 1, 2, 4, and 8 h following administration. The sample preparation and the analysis were following the protocol provided in the Supporting Information Methods.
[…] of plasma was mixed with […] of methanol: acetonitrile solvent (1:1, v/v) with internal standard, and the mixture was thoroughly vortexed. After centrifugation for 5 minutes, […] of the supernatant was combined with […] of water for analysis. Samples were analyzed by Xevo TQ-S triple quadrupole mass spectrometer. The ACQUITY UPLC BEH C^18 (1.7 µm, 2.0mm_ 50 mm, Waters, USA) was adopted for the analysis. Gradient elution was employed using a 5 mM ammonium acetate aqueous solution containing 0.1% formic acid, along with acetonitrile containing 0.1% formic acid. Following the analysis of compound concentrations, Phoenix WinNonlin (CERTARA, USA) was utilized to calculate the value of AUClast, AUCINFinf_obs and MRTINFinf_obs from time-concentration curves in each animal. Cmax denotes the peak plasma concentration, while Tmax signifies the time taken to achieve the peak concentration.

MC38 tumor = assay: In vivo antitumor evaluation in MC38 tumor model; set-up: species or system C57BL/6 mice
Experimental: C57BL/6 mice, aged 6 weeks, were house and cared for in a controlled, specific pathogen‐free environment. MC38 tumor cells (3.5 × 10[5] in 100 µL) were administered to the mice via subcutaneous injection into the right flanks. Upon reaching a tumor volume between 50 and 100 mm^3, mice were randomized and assigned to either the vehicle control group or the specified treatment group (n = 7/group). The details regarding the administration of inhibitors and the measurement of tumors are delineated in the Supporting Information Methods.
The mice then received intraperitoneal injections of either the vehicle control or compound 11 (at dosages of 25 or 50 mg/kg) twice daily for 10 days. Tumor size was gauged every three days with a microcaliper, and the tumor volume (TV) was estimated using the formula: TV = (length × width^2)/2. Additionally, the individual Tumor Growth Inhibition value (TGI) was assessed on the last day of the experiment for mice treated with the drug in comparison to those treated with the vehicle. The formula used was 100 × {1 - [(VTreated Final day -VTreated Day 0)/(VControl Final day -VControl Day 0)].

FGFR4 = molecular target: T1, FGFR4 (Homo sapiens, UniProt P22455); assay: Eurofins kinase selectivity profile, FGFR4; type: biochemical
T1 construct: purchased Eurofins (Celle Lévescault)
T1 sequence (P22455 22-802): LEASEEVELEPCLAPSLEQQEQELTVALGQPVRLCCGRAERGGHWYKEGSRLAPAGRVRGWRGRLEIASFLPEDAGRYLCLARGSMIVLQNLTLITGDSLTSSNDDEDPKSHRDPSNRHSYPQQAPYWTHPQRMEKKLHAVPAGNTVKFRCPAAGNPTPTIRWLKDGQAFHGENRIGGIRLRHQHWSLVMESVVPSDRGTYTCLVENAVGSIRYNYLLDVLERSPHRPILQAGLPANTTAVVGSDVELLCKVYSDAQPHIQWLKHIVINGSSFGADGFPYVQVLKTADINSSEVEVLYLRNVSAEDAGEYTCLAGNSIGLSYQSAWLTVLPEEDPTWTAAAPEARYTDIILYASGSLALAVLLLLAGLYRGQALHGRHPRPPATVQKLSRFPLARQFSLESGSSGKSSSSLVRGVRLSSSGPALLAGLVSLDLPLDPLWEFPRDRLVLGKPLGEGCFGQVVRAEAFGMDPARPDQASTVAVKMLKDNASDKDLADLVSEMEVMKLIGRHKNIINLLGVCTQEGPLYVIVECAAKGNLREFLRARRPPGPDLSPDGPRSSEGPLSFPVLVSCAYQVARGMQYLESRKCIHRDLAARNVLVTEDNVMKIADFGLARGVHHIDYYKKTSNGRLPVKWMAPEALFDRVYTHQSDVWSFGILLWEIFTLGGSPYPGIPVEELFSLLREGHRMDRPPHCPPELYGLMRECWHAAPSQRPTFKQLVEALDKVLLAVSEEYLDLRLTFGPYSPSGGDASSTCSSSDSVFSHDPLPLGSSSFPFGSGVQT
Experimental: Subsequently, to ascertain whether the high potency of compound 11 was specific for MK2, an additional 380 human recombinant protein kinases were screened.
To assess the impact of various compounds on MK2 kinase activity, we utilized the ADP‐Glo Assay Kit (Promega) following the manufacturer's instructions. Luminescence measurements were taken using a SpectraMax Paradigm reader. The inhibition percentage was calculated using the following formula: ((specific signalDMSO control − specific signal inhibitor)/(specific signalDMSO control)) × 100%. The IC50 values were determined employing dose–response curve fitting via Prism (Graph Pad). Additionally, Eurofins company (Celle Lévescault) conducted the analysis on compound 11’s inhibitory activity against 380 other human recombinant kinases at various concentrations.

SMILES: C=CC(=O)Nc1cc(-c2cc(-c3cc4c([nH]3)CCNC4=O)ccn2)ccc1OC(F)(F)F [compound 11]
- effect on LPS-induced TNF-α, IL-6 and IL-1 mRNA expression [1]: significantly inhibited
- AUC(0-t) [2]: 44.5 ± 21.4 ng·h/mL
- Cmax [2]: 126 ng/mL
- Tmax [2]: 3 min
- half-life [2]: 22.8 min
- AUC ([2]; read-out: AUCinf_obc): 45.2 ± 21.3 ng·h/mL
- MRT inf ([2]; read-out: MRTinf_obs): 98.4 ± 125 min
- tumor growth inhibition rate (TGI) (MC38 tumor; 25 mg/kg bid x10, ip): 47.5%
- tumor growth inhibition rate (TGI) (MC38 tumor; 50 mg/kg bid x10, ip): 64.0%
- IC50 (FGFR4): > 1000 nM
- inhibition at 0.01 µM (FGFR4; FGFR4(h), 10 nM, read-out: Inhibition rate): 0%
- inhibition at 0.1 µM (FGFR4; FGFR4(h), 100 nM, read-out: Inhibition rate): -5%
- inhibition at 1 µM (FGFR4; FGFR4(h), 1000 nM, read-out: Inhibition rate): -1%
